IC50 data for 23 molecules are collected here from patent publication US9556179B2 (BRISTOL-MYERS SQUIBB COMPANY, priority 2012, dated 2017).

Structures are written as SMILES.

Experiment [1] concerns the target CK1δ (Homo sapiens (Human), UniProt P48730). Description: CK1δ kinase assay (Caliper LABCHIP electrophoretic separation of fluoresceinated peptide substrate and product). The format is biochemical. The conditions noted are these: 200 pM enzyme, 50 μM ATP, 22 hours at room temperature. In outline:
(§1)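 Reactions ran 22 hours at room temperature and were stopped with EDTA. Phosphorylated product and unphosphorylated substrate were then separated electrophoretically. Compounds were tested at eleven concentrations, and IC50 values came from non-linear regression.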

For experiment [2], the target named is CK1ε (Homo sapiens (Human), UniProt P49674). Description: CK1ε kinase assay (Caliper LABCHIP electrophoretic separation of fluoresceinated peptide substrate and product). In kind it is biochemical. To be noted: 200 pM enzyme, 50 μM ATP, 22 hours at room temperature. In outline: as §1
CK1ε, sequence (P49674 whole entry): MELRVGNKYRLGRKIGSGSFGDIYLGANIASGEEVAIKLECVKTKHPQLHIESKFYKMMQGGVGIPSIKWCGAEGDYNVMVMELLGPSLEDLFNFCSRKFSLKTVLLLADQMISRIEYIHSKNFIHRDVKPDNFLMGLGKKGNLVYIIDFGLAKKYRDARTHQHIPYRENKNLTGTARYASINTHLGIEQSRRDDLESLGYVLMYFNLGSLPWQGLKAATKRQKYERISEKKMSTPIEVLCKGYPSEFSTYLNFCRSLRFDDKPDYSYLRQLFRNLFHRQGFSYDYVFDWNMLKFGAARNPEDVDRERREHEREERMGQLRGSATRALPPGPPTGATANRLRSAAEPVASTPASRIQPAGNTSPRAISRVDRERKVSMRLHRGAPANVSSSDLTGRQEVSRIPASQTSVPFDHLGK

CK1δ, sequence (P48730 whole entry): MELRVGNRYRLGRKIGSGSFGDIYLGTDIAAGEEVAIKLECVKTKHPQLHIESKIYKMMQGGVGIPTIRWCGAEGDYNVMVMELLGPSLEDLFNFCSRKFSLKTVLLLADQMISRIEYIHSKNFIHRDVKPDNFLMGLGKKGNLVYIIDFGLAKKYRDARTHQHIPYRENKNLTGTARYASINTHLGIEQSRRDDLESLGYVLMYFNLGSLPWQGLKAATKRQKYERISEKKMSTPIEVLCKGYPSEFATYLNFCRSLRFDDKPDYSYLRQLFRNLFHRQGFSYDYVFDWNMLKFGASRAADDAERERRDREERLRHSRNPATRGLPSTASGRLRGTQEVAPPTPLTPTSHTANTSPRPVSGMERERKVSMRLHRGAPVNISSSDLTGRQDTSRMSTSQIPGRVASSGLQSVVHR

One may read the IC50 as the concentration at which inhibition is half-maximal. Take `O=C(Nc1cn2nc(-c3c(-c4ccc(F)cc4)ncn3C3CCN(C(=O)c4ccncc4)CC3)ccc2n1)c1ccnc(F)c1` [Compound 56, 2-fluoro-N-(6-(4-(4-fluorophenyl)-1-(1 isonicotinoylpiperidin-4-yl)-1H-imidazol-5-yl)imidazo[1,2-b]pyridazin-2-yl)isonicotinamide]: the IC50 in experiment [1] stood at 0.13 nM; in experiment [2], 0.297 nM.

With `Cc1noc(C)c1C(=O)N1CCC(n2cnc(-c3ccc(F)cc3)c2-c2ccc3nc(NC(=O)c4ccnc(F)c4)cn3n2)CC1` [Compound 57, N-(6-(1-(1-(3,5-dimethylisoxazole-4-carbonyl)piperidin-4-yl)-4-(4-fluorophenyl)-1H-imidazol-5-yl)imidazo[1,2-b]pyridazin-2-yl)-2-fluoroisonicotinamide], the IC50 in experiment [1] is 0.321 nM; in experiment [2] it was 3.42 nM.

As to `CS(=O)(=O)CC(=O)N1CCC(n2cnc(-c3ccc(F)cc3)c2-c2ccc3nc(NC(=O)c4ccnc(F)c4)cn3n2)CC1` [Compound 58, 2-fluoro-N-(6-(4-(4-fluorophenyl)-1-(1-(2-(methylsulfonyl)acetyl)piperidin-4-yl)-1H-imidazol-5-yl)imidazo[1,2-b]pyridazin-2-yl)isonicotinamide], the IC50 in experiment [1] worked out at 0.233 nM; in experiment [2], 0.457 nM.

On to `O=C(Nc1cn2nc(-c3c(-c4ccc(F)cc4)ncn3C3CCN(C(=O)CCC(F)(F)F)CC3)ccc2n1)c1ccnc(F)c1` [Compound 59, 2-fluoro-N-(6-(4-(4-fluorophenyl)-1-(1-(4,4,4-trifluorobutanoyl)piperidin-4-yl)-1H-imidazol-5-yl)imidazo[1,2-b]pyridazin-2-yl)isonicotinamide], for which the IC50 in experiment [1] turned out to be 0.579 nM; in experiment [2] it was 1.97 nM.

As for `Cn1ccc(C(=O)N2CCC(n3cnc(-c4ccc(F)cc4)c3-c3ccc4nc(NC(=O)c5ccnc(F)c5)cn4n3)CC2)n1` [Compound 60, 2-fluoro-N-(6-(4-(4-fluorophenyl)-1-(1-(1-methyl-1H-pyrazole-3-carbonyl)piperidin-4-yl)-1H-imidazol-5-yl)imidazo[1,2-b]pyridazin-2-yl)isonicotinamide], the IC50 in experiment [1] stood at 0.213 nM; in experiment [2], 0.545 nM.

For the molecule `O=C(Nc1cn2nc(-c3c(-c4ccc(F)cc4)ncn3C3CCN(C(=O)CN4CCOCC4)CC3)ccc2n1)c1ccnc(F)c1` [Compound 61, 2-fluoro-N-(6-(4-(4-fluorophenyl)-1-(1-(2-morpholinoacetyl)piperidin-4-yl)-1H-imidazol-5-yl)imidazo[1,2-b]pyridazin-2-yl)isonicotinamide], the IC50 in experiment [1] was 0.186 nM; in experiment [2] it was 1.26 nM.

Take `Cc1oncc1C(=O)N1CCC(n2cnc(-c3ccc(F)cc3)c2-c2ccc3nc(NC(=O)c4ccnc(F)c4)cn3n2)CC1` [Compound 62, 2-fluoro-N-(6-(4-(4-fluorophenyl)-1-(1-(5-methylisoxazole-4-carbonyl)piperidin-4-yl)-1H-imidazol-5-yl)imidazo[1,2-b]pyridazin-2-yl)isonicotinamide]: the half-maximal inhibitory concentration (IC50) amounted to 0.313 nM in experiment [1] and 0.256 nM in experiment [2].

As to `CC(C)(F)C(=O)N1CCC(n2cnc(-c3ccc(F)cc3)c2-c2ccc3nc(NC(=O)c4ccnc(F)c4)cn3n2)CC1` [Compound 64, 2-fluoro-N-(6-(1-(1-(2-fluoro-2-methylpropanoyl)piperidin-4-yl)-4-(4-fluorophenyl)-1H-imidazol-5-yl)imidazo[1,2-6]pyridazin-2-yl)isonicotinamide], the IC50 in experiment [1] came to 0.361 nM; in experiment [2], 0.798 nM.

For `O=C(Nc1cn2nc(-c3c(-c4ccc(F)cc4)ncn3C3CCN(C(=O)C4CC4(F)F)CC3)ccc2n1)c1ccnc(F)c1` (stereo not shown) [Compound 65, N-(6-(1-(1-(2,2-difluorocyclopropanecarbonyl)piperidin-4-yl)-4-(4-fluorophenyl)-1H-imidazol-5-yl)imidazo[1,2-b]pyridazin-2-yl)-2-fluoroisonicotinamide], the IC50 in experiment [1] was 0.256 nM; in experiment [2] it was 1.37 nM.

In the case of `CC1(C)CC1C(=O)N1CCC(n2cnc(-c3ccc(F)cc3)c2-c2ccc3nc(NC(=O)c4ccnc(F)c4)cn3n2)CC1` (stereo not shown) [Compound 66, N-(6-(1-(1-(2,2-dimethylcyclopropanecarbonyl)piperidin-4-yl)-4-(4-fluorophenyl)-1H-imidazol-5-yl)imidazo[1,2-6]pyridazin-2-yl)-2-fluoroisonicotinamide], the IC50 amounted to 0.928 nM in experiment [1] and 7.2 nM in experiment [2].

With `O=C(Nc1cn2nc(-c3c(-c4ccc(F)cc4)ncn3C3CCN(C(=O)CCCl)CC3)ccc2n1)c1ccnc(F)c1` [Compound 70, N-(6-(1-(1-(3-chloropropanoyl)piperidin-4-yl)-4-(4-fluorophenyl)-1H-imidazol-5-yl)imidazo[1,2-b]pyridazin-2-yl)-2-fluoroisonicotinamide], the IC50 in experiment [1] was found to be 0.143 nM; in experiment [2], 0.493 nM.

Regarding `N#CC1(C(=O)N2CCC(n3cnc(-c4ccc(F)cc4)c3-c3ccc4nc(NC(=O)c5ccnc(F)c5)cn4n3)CC2)CC1` [Compound 71, N-(6-(1-(1-(1-cyanocyclopropanecarbonyl)piperidin-4-yl)-4-(4-fluorophenyl)-1H-imidazol-5-yl)imidazo[1,2-b]pyridazin-2-yl)-2-fluoroisonicotinamide], the results for the IC50 in experiment [1] and in experiment [2] were 0.172 nM and 0.676 nM, respectively.

As to `O=C(Nc1cn2nc(-c3c(-c4ccc(F)cc4)ncn3C3CCN(C(=O)c4c[nH]cn4)CC3)ccc2n1)c1ccnc(F)c1` [Compound 72, N-(6-(1-(1-(1H-imidazole-4-carbonyl)piperidin-4-yl)-4-(4-fluorophenyl)-1H-imidazol-5-yl)imidazo(1,2-b]pyridazin-2-yl)-2-fluoroisonicotinamide], the IC50 in experiment [1] amounted to 0.183 nM; in experiment [2] it was 0.559 nM.

As to `O=C(Nc1cn2nc(-c3c(-c4ccc(F)cc4)ncn3C3CCN(C(=O)c4ccns4)CC3)ccc2n1)c1ccnc(F)c1` [Compound 73, 2-fluoro-N-(6-(4-(4-fluorophenyl)-1-(1-(isothiazole-5-carbonyl)piperidin-4-yl)-1H-imidazol-5-yl)imidazo[1,2-b]pyridazin-2-yl)isonicotinamide], the IC50 in experiment [1] worked out at 0.354 nM; in experiment [2], 0.608 nM.

With `O=C(Nc1cn2nc(-c3c(-c4ccc(F)cc4)ncn3C3CCN(S(=O)(=O)C4CC4)CC3)ccc2n1)c1ccnc(F)c1` [Compound 74, N-(6-(1-(1-(cyclopropylsulfonyl)piperidin-4-yl)-4-(4-fluorophenyl)-1H-imidazol-5-yl)imidazo[1,2-b]pyridazin-2-yl)-2-fluoroisonicotinamide], the results for the IC50 in experiment [1] and in experiment [2] were 0.675 nM and 1.52 nM, respectively.

For the molecule `CC(C)(C)COC(=O)N1CCC(n2cnc(-c3ccc(F)cc3)c2-c2ccc3nc(NC(=O)c4ccnc(F)c4)cn3n2)CC1` [Compound 75, neopentyl 4-(5-(2-(2-fluoroisonicotinamido)imidazo[1,2-b]pyridazin-6-yl)-4-(4-fluorophenyl)-1H-imidazol-1-yl)piperidine-1-carboxylate], the IC50 in experiment [1] turned out to be 1.4 nM; in experiment [2], 3.49 nM.

On to `CC(C)OC(=O)N1CCC(n2cnc(-c3ccc(F)cc3)c2-c2ccc3nc(NC(=O)c4ccnc(F)c4)cn3n2)CC1` [Compound 76, isopropyl 4-(5-(2-(2-fluoroisonicotinamido)imidazo[1,2-b]pyridazin-6-yl)-4-(4-fluorophenyl)-1H-imidazol-1-yl)piperidine-1-carboxylate], for which the IC50 in experiment [1] stood at 0.251 nM; in experiment [2], 1.8 nM.

As to `O=C(Nc1cn2nc(-c3c(-c4ccc(F)cc4)ncn3C3CCN(C(=O)OC4CCCC4)CC3)ccc2n1)c1ccnc(F)c1` [Compound 77, cyclopentyl 4-(5-(2-(2-fluoroisonicotinamido)imidazo[1,2-b]pyridazin-6-yl)-4-(4-fluorophenyl)-1H-imidazol-1-yl)piperidine-1-carboxylate], the values for the IC50 in experiment [1] and in experiment [2] were 0.744 nM and 14 nM, respectively.

In the case of `O=C(Nc1cn2nc(-c3c(-c4ccc(F)cc4)ncn3C3CCN(C(=O)OCC4CC4)CC3)ccc2n1)c1ccnc(F)c1` [Compound 78, cyclopropylmethyl 4-(5-(2-(2-fluoroisonicotinamido)imidazo[1,2-b]pyridazin-6-yl)-4-(4-fluorophenyl)-1H-imidazol-1-yl)piperidine-1-carboxylate], the IC50 amounted to 0.295 nM in experiment [1] and 2.23 nM in experiment [2].

Consider `CC(C)COC(=O)N1CCC(n2cnc(-c3ccc(F)cc3)c2-c2ccc3nc(NC(=O)c4ccnc(F)c4)cn3n2)CC1` [Compound 79, isobutyl 4-(5-(2-(2-fluoroisonicotinamido)imidazo[1,2-b]pyridazin-6-yl)-4-(4-fluorophenyl)-1H-imidazol-1-yl)piperidine-1-carboxylate], for which the IC50 in experiment [1] was determined as 0.376 nM; in experiment [2] it was 1.91 nM.

`O=C(Nc1cn2nc(-c3c(-c4ccc(F)cc4)ncn3C3CCN(C(=O)OC4COC4)CC3)ccc2n1)c1ccnc(F)c1` [Compound 80, oxetan-3-yl 4-(5-(2-(2-fluoroisonicotinamido)imidazo[1,2-b]pyridazin-6-yl)-4-(4-fluorophenyl)-1H-imidazol-1-yl)piperidine-1-carboxylate]: the IC50 in experiment [1] was 0.171 nM; in experiment [2], 0.809 nM.

Take `O=C(Nc1cn2nc(-c3c(-c4ccc(F)cc4)ncn3C3CCN(C(=O)OC4CCOCC4)CC3)ccc2n1)c1ccnc(F)c1` [Compound 81, tetrahydro-2H-pyran-4-yl 4-(5-(2-(2-fluoroisonicotinamido)imidazo[1,2-b]pyridazin-6-yl)-4-(4-fluorophenyl)-1H-imidazol-1-yl)piperidine-1-carboxylate]: the IC50 in experiment [1] is 0.311 nM; in experiment [2], 1.63 nM.

Consider `O=C(Nc1cn2nc(-c3c(-c4ccc(F)cc4)ncn3C3CCN(C(=O)OCC4CC4(F)F)CC3)ccc2n1)c1ccnc(F)c1` (stereo not shown) [Compound 82, (2,2-difluorocyclopropyl)methyl 4-(5-(2-(2-fluoroisonicotinamido)imidazo[1,2-b]pyridazin-6-yl)-4-(4-fluorophenyl)-1H-imidazol-1-yl)piperidine-1-carboxylate], for which the IC50 was 0.247 nM in experiment [1] and 1.59 nM in experiment [2].
